Where only a bound is given, the exact number is not on record here.

Series [1] addresses T1, recombinant BCL-2 (Homo sapiens, UniProt P10415).
T1 construct: purchased BPS Bioscience 50272
As to the kind of experiment: In vitro BCL-2 inhibitory activity, TR-FRET assay (BPS Bioscience). It counts as binding. The conditions noted are these: for BCL-2 inhibition % / inhibition at 10 µM: single dose of 10 µM; for IC50: 5 concentrations 1 nM-10 µM. The method, then:
The in vitro enzyme inhibition determination for the synthesized compounds was carried out in BPS Bioscience Corporation, San Diego, CA, USA (www.bpsbioscience.com). […] The assay was performed by TR-FRET technology using a recombinant BCL-2 and a peptide- ligand substrate. The TR-FRET signal from the assay is correlated with the amount of Ligand binding to BCL-2. […] All of the binding reactions were conducted at room temperature. […] The reaction mixture incubated for 180 min prior to reading the TR-FRET signal. For the background, ligand was replaced with assay buffer. Fluorescence signals for both the donor and acceptor dyes were measured using a Tecan Infinite M1000 plate reader. TR-FRET was recorded as the ratio of the fluorescence of the acceptor and the donor dyes (acceptor/donor). Binding experiments were performed in duplicate at each concentration. The TR-FRET data were analyzed using the computer software, Graphpad Prism. In the absence of the compound in wells containing BCL-2 ligand, the TR-FRET signal (Ft) in each data set was defined as 100% activity. In wells without peptide ligand, the TR-FRET signal (Fb) in each data set was defined as 0% activity. The percent activity in the presence of each compound was calculated according to the following equation: % activity = [(F − Fb)/ (Ft − Fb)] × 100, where F = the TR-FRET signal in the presence of the compound. The percent inhibition was calculated according to the following equation: % inhibition = 100—% activity. IC50 determination for target compounds against BCL-2 was calculated. […] The IC50 value was determined by the concentration causing a half-maximal percent activity.

T1 sequence (P10415 whole entry): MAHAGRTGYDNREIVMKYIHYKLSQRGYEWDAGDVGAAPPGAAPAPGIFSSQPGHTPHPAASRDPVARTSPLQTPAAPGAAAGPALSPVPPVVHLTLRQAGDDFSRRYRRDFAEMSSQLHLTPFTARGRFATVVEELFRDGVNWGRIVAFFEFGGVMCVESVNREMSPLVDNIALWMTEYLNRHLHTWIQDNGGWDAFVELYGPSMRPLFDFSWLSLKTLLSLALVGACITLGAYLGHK

For “N-(6-(4-(4-Chlorophenyl)piperazine-1-carbonyl)benzo[d]thiazol-2-yl)naphthalene-2-sulfonamide [7d]”, the BCL-2 inhibition % in series [1] amounted to 8%.

Turning to `Cc1cc(Cl)ccc1NC(=O)Nc1ccc2nc(NS(=O)(=O)c3ccc4ccccc4c3)sc2c1` [17i, N-(6-(3-(4-Chloro-2-methylphenyl)ureido)benzo[d]thiazol-2-yl)naphthalene-2-sulfonamide], the melting point (usually the temperature, or range, at which the solid turns liquid) lay in the range of 280 to 282 °C. Also, the inhibition (commonly the share of the control response that was lost under treatment) at 10 µM in series [1] was 14%.

As to `O=C(Nc1ccc(Oc2ccc(Cl)c(F)c2)cc1)c1ccc2nc(NC(=O)c3ccc(NCCc4ccccc4)c([N+](=O)[O-])c3)sc2c1` [14a, N-(4-(4-Chloro-3-fluorophenoxy)phenyl)-2-(3-nitro-4-(phenethylamino)benzamido)-benzo[d]thiazole-6-carboxamide], the melting point was 196 to 198 °C. In addition, in series [1], the inhibition at 10 µM is 20%.

Regarding `O=C(Nc1nc2ccc(C(=O)N3CCN(C/C=C/c4ccccc4)CC3)cc2s1)c1ccc(NCCc2ccccc2)c([N+](=O)[O-])c1` [12d, (E)-N-(6-(4-Cinnamylpiperazine-1-carbonyl)benzo[d]thiazol-2-yl)-3-nitro-4-(phenethyl-amino)benzamide], the melting point was 244 to 246 °C. Also, the inhibition at 10 µM in series [1] came out at 14%.

With `COc1ccccc1N1CCN(C(=O)c2ccc3nc(NC(=O)c4ccc(NCCc5ccccc5)c([N+](=O)[O-])c4)sc3c2)CC1` [12a, N-(6-(4-(2-Methoxyphenyl)piperazine-1-carbonyl)benzo[d]thiazol-2-yl)-3-nitro-4-(phenethylamino)benzamide], the melting point fell in the range of 184 to 186 °C. Further, the inhibition at 10 µM in series [1] worked out at 15%.

On to `O=C(Nc1ccc(OCc2cccc(Cl)c2)cc1)c1ccc2nc(NS(=O)(=O)c3ccc4ccccc4c3)sc2c1` [8b, N-(4-((3-Chlorobenzyl)oxy)phenyl)-2-(naphthalene-2-sulfonamido)benzo[d]thiazole-6-carboxamide], for which the melting point lay within 198 to 200 °C. In series [1], the inhibition at 10 µM turned out to be 16%.

`O=C(Nc1cccc(Br)c1)Nc1ccc2nc(NS(=O)(=O)c3ccc4ccccc4c3)sc2c1` [17c, N-(6-(3-(3-Bromophenyl)ureido)benzo[d]thiazol-2-yl)naphthalene-2-sulfonamide]: the melting point is no less than 300 °C. In series [1], the inhibition at 10 µM was 10%.

In the case of `O=C(c1ccc2nc(NS(=O)(=O)c3ccc4ccccc4c3)sc2c1)N1CCN(c2ccccc2)CC1` [7a, N-(6-(4-Phenylpiperazine-1-carbonyl)benzo[d]thiazol-2-yl)naphthalene-2-sulfonamide], the inhibition at 10 µM in series [1] stood at 0%.

`O=C(Nc1nc2ccc(C(=O)N3CCN(C(c4ccccc4)c4ccccc4)CC3)cc2s1)c1ccc(NCCc2ccccc2)c([N+](=O)[O-])c1` [12c, N-(6-(4-Benzhydrylpiperazine-1-carbonyl)benzo[d]thiazol-2-yl)-3-nitro-(phenethylamino)-benzamide] came in with a melting point of 170 to 172 °C. In series [1], the inhibition at 10 µM is 18%.

As for `O=C(Nc1cccc(Cl)c1)Nc1ccc2nc(NS(=O)(=O)c3ccc4ccccc4c3)sc2c1` [17b, N-(6-(3-(3-Chlorophenyl)ureido)benzo[d]thiazol-2-yl)naphthalene-2-sulfonamide], the melting point was no less than 300 °C. Further, the inhibition at 10 µM in series [1] came to 7%.

In turn, `O=C(Nc1ccc(OCc2ccc(Br)cc2)cc1)c1ccc2nc(NC(=O)c3ccc(NCCc4ccccc4)c([N+](=O)[O-])c3)sc2c1` [13b, N-(4-((4-Bromobenzyl)oxy)phenyl)-2-(3-nitro-4-(phenethylamino)benzamido)-benzo[d]thiazole-6-carboxamide] registered a melting point of 260 to 262 °C. In series [1], the 50% inhibitory concentration (IC50) (in general, the concentration needed to halve the response being measured) was 1090 nM and the inhibition at 10 µM is greater than 60%.

Regarding `O=C(c1ccc2nc(NS(=O)(=O)c3ccc4ccccc4c3)sc2c1)N1CCN(Cc2ccc3c(c2)OCO3)CC1` [7h, N-(6-(4-(Benzo[d]dioxol-5-ylmethyl)piperazine-1-carbonyl)benzo[d]thiazol-2-yl)naphthalene-2-sulfonamide], the melting point was in the range of 178 to 180 °C. In series [1], the inhibition at 10 µM came out at 1%.

With `O=C(Nc1ccc(Oc2ccc(Cl)c(F)c2)cc1)c1ccc2nc(NS(=O)(=O)c3ccc4ccccc4c3)sc2c1` [9a, N-(4-(4-Chloro-3-fluorophenoxy)phenyl)-2-(naphthalene-2-sulfonamido)benzo[d]thiazole-6-carboxamide], the melting point lay within 294 to 296 °C. Also, the inhibition at 10 µM in series [1] stood at 9%.

For the compound “N-(6-(4-(3,4-Dichlorophenyl)piperazine-1-carbonyl)benzo[d]thiazol-2-yl)naphthalene-2-sulfonamide [7e]”, in series [1], the BCL-2 inhibition % came to 0%.

As to `COc1ccccc1N1CCN(C(=O)c2ccc3nc(NS(=O)(=O)c4ccc5ccccc5c4)sc3c2)CC1` [7c, N-(6-(4-(2-Methoxyphenyl)piperazine-1-carbonyl)benzo[d]thiazol-2-yl)naphthalene-2-sulfonamide], the melting point was in the range of 258 to 260 °C. Moreover, the inhibition at 10 µM in series [1] was determined as 2%.

Consider `O=C(Nc1ccccc1)Nc1ccc2nc(NS(=O)(=O)c3ccc4ccccc4c3)sc2c1` [17a, N-(6-(3-Phenylureido)benzo[d]thiazol-2-yl)naphthalene-2-sulfonamide], for which the melting point is no less than 300 °C. Besides, in series [1], the inhibition at 10 µM amounted to 0%.

As for `O=C(Nc1ccc(OCc2ccc(Br)cc2)cc1)c1ccc2nc(NS(=O)(=O)c3ccc4ccccc4c3)sc2c1` [8d, N-(4-((4-Bromobenzyl)oxy)phenyl)-2-(naphthalene-2-sulfonamido)benzo[d]thiazole-6-carboxamide], the melting point was no less than 300 °C. In series [1], the IC50 turned out to be 1620 nM and the inhibition at 10 µM was greater than 60%.

On to `O=C(Nc1nc2ccc(C(=O)N3CCN(c4ccc(Cl)c(Cl)c4)CC3)cc2s1)c1ccc(NCCc2ccccc2)c([N+](=O)[O-])c1` [12b, N-(6-(4-(3,4-Dichlorophenyl)piperazine-1-carbonyl)benzo[d]thiazol-2-yl)-3-nitro-4-(phenethylamino)benzamide], for which the melting point was in the range of 176 to 178 °C. In addition, the inhibition at 10 µM in series [1] was found to be 18%.

`O=C(Nc1ccc(OCc2ccc(Cl)cc2)cc1)c1ccc2nc(NS(=O)(=O)c3ccc4ccccc4c3)sc2c1` [8c, N-(4-((4-Chlorobenzyl)oxy)phenyl)-2-(naphthalene-2-sulfonamido)benzo[d]thiazole-6-carboxamide] had a melting point of 296 to 298 °C. For the same compound, the inhibition at 10 µM in series [1] turned out to be 48%.

Turning to `O=C(Nc1ccc(OCc2cccc(Cl)c2)cc1)c1ccc2nc(NC(=O)c3ccc(NCCc4ccccc4)c([N+](=O)[O-])c3)sc2c1` [13a, N-(4-((3-Chlorobenzyl)oxy)phenyl)-2-(3-nitro-4-(phenethylamino)benzamido) benzo[d]thiazole-6-carboxamide], the melting point fell in the range of 260 to 262 °C. Also, in series [1], the inhibition at 10 µM was 35%.

For `O=C(Nc1ccc(Oc2ccc(Br)cc2)cc1)c1ccc2nc(NS(=O)(=O)c3ccc4ccccc4c3)sc2c1` [9b, N-(4-(4-Bromophenoxy)phenyl)-2-(naphthalene-2-sulfonamido)benzo[d]thiazole-6-carboxamide], the melting point lay within 280 to 282 °C. Further, in series [1], the inhibition at 10 µM is 9%.

In the case of `O=C(Nc1ccc(Br)cc1)Nc1ccc2nc(NS(=O)(=O)c3ccc4ccccc4c3)sc2c1` [17f, N-(6-(3-(4-Bromophenyl)ureido)benzo[d]thiazol-2-yl)naphthalene-2-sulfonamide], the melting point is no less than 300 °C. In addition, in series [1], the IC50 is 2290 nM and the inhibition at 10 µM is greater than 60%.

Consider `Cc1ccc(COc2ccc(NC(=O)c3ccc4nc(NS(=O)(=O)c5ccc6ccccc6c5)sc4c3)cc2)cc1` [8e, N-(4-((4-Methylbenzyl)oxy)phenyl)-2-(naphthalene-2-sulfonamido)benzo[d]thiazole-6-carboxamide], for which the melting point is no less than 300 °C. For the same compound, the inhibition at 10 µM in series [1] came out at 13%.

Compound `O=C(c1ccc2nc(NS(=O)(=O)c3ccc4ccccc4c3)sc2c1)N1CCN(C/C=C/c2ccccc2)CC1` [7g, (E)-N-(6-(4-Cinnamylpiperazine-1-carbonyl)benzo[d]thiazol-2-yl)naphthalene-2-sulfonamide] yielded a melting point of 240 to 242 °C. The inhibition at 10 µM in series [1] was 7%.

`O=C(Nc1ccc(Cl)c(Cl)c1)Nc1ccc2nc(NS(=O)(=O)c3ccc4ccccc4c3)sc2c1` [17h, N-(6-(3-(3,4-Dichlorophenyl)ureido)benzo[d]thiazol-2-yl)naphthalene-2-sulfonamide]: the melting point was in the range of 290 to 292 °C. Further, the inhibition at 10 µM in series [1] is 0%.

The compound `O=C(c1ccc2nc(NS(=O)(=O)c3ccc4ccccc4c3)sc2c1)N1CCN(c2ccccc2F)CC1` [7b, N-(6-(4-(2-Fluorophenyl)piperazine-1-carbonyl)benzo[d]thiazol-2-yl)naphthalene-2-sulfonamide] registered a melting point of 290 to 292 °C. In addition, the inhibition at 10 µM in series [1] stood at 0%.

Take `CC1(C)CCC(CN2CCN(c3ccc(C(=O)NS(=O)(=O)c4ccc(NCC5CCOCC5)c([N+](=O)[O-])c4)c(Oc4cnc5[nH]ccc5c4)c3)CC2)=C(c2ccc(Cl)cc2)C1` [ABT-199 (20), reference compound]: in series [1] (at 100 nM), the inhibition at 0.1 µM worked out at 92%.

Source of the values: paper PMC10511702, “Design, molecular modelling and synthesis of novel benzothiazole derivatives as BCL-2 inhibitors” (Scientific Reports, 2023).
